Source: patent US20240269304A1, “BCL-XL INHIBITOR ANTIBODY-DRUG CONJUGATES AND METHODS OF USE THEREOF” (Novartis AG, priority 2020, published 2024)
Like-named read-outs stand apart in the source and are kept apart here.

Tested on: H1650 cells
Assay: CellTiterGlo (CTG) cell viability, 3D, 120 h, H1650 (Example 8)
Format: cell-based, human
Conditions: Homo sapiens, NCI-H1650, H1650 3D
[1] = experiment n1, read-out: H1650 3D CTG IC50 n1
[2] = experiment n2, read-out: H1650 3D CTG IC50 n2
[3] = mean of n1 and n2, read-out: H1650 3D CTG IC50 Mean of n1 and n2

Row | Compound | IC50 [1] [nM] | IC50 [2] [nM] | IC50 [3] [nM]
1 | Cc1ccc2nc(Nc3nnc4c(c3C)CCCN4c3ccc(-c4cnn(CC56CC7(C)CC(C)(C5)CC(OCCN5CCCC5)(C7)C6)c4C)c(C(=O)O)n3)sc2c1 [P64, 3-[1-[[3,5-dimethyl-7-(2-pyrrolidin-1-ylethoxy)-1-adamantyl]methyl]-5-methyl-pyrazol-4-yl]-6-[4-methyl-3-[(6-methyl-1,3-benzothiazol-2-yl)amino]-6,7-dihydro-5H-pyrido[2,3-c]pyridazin-8-yl]pyridine-2-carboxylic acid] | 1.6 | 2.9 | 2.25
2 | Cc1c(Nc2nc3ccc(F)cc3s2)nnc2c1CCCN2c1ccc(-c2cnn(CC34CC5(C)CC(C)(C3)CC(OCCN3CCCC3)(C5)C4)c2C)c(C(=O)O)n1 [P65, 3-[1-[[3,5-dimethyl-7-(2-pyrrolidin-1-ylethoxy)-1-adamantyl]methyl]-5-methyl-pyrazol-4-yl]-6-[3-[(6-fluoro-1,3-benzothiazol-2-yl)amino]-4-methyl-6,7-dihydro-5H-pyrido[2,3-c]pyridazin-8-yl]pyridine-2-carboxylic acid] | 1 | 1.2 | 1.1
3 | Cc1c(Nc2nc3ccccc3s2)nnc2c1CCCN2c1ccc(-c2cnn(CC34CC5(C)CC(C)(CC(CCCN(C)C)(C5)C3)C4)c2C)c(C(=O)O)n1 [P66, 6-[3-(1,3-benzothiazol-2-ylamino)-4-methyl-6,7-dihydro-5H-pyrido[2,3-c]pyridazin-8-yl]-3-[1-[[3-[3-(dimethylamino)propyl]-5,7-dimethyl-1-adamantyl]methyl]-5-methyl-pyrazol-4-yl]pyridine-2-carboxylic acid] | 0.49 | 0.22 | 0.355
4 | Cc1c(Nc2nc3ccccc3s2)nnc2c1CCCN2c1ccc(-c2cnn(CC34CC5(C)CC(C)(CC(CCCN(C)CCCO)(C5)C3)C4)c2C)c(C(=O)O)n1 [P68, 6-[3-(1,3-benzothiazol-2-ylamino)-4-methyl-6,7-dihydro-5H-pyrido[2,3-c]pyridazin-8-yl]-3-[1-[[3-[3-[3-hydroxypropyl(methyl)amino]propyl]-5,7-dimethyl-1-adamantyl]methyl]-5-methyl-pyrazol-4-yl]pyridine-2-carboxylic acid] | 0.84 | 0.68 | 0.76
5 | Cc1c(Nc2nc3ccccc3s2)nnc2c1CCCN2c1ccc(-c2cnn(CC34CC5(C)CC(C)(CC(CCCNCC[C@H](O)CO)(C5)C3)C4)c2C)c(C(=O)O)n1 [P69, 6-[3-(1,3-benzothiazol-2-ylamino)-4-methyl-6,7-dihydro-5H-pyrido[2,3-c]pyridazin-8-yl]-3-[1-[[3-[3-[[(3S)-3,4-dihydroxybutyl]amino]propyl]-5,7-dimethyl-1-adamantyl]methyl]-5-methyl-pyrazol-4-yl]pyridine-2-carboxylic acid] | 3.78 | 5.56 | 4.67

Further lines, results first:

Row | IC50 [1] [nM] | IC50 [2] [nM] | IC50 [3] [nM] | Compound
6 | 9.65 | 9.49 | 9.57 | Cc1c(Nc2nc3ccccc3s2)nnc2c1CCCN2c1ccc(-c2cnn(CC34CC5(C)CC(C)(C3)CC(OCCN(C)CCC(=O)O)(C5)C4)c2C)c(C(=O)O)n1 [P70, 6-[3-(1,3-benzothiazol-2-ylamino)-4-methyl-6,7-dihydro-5H-pyrido[2,3-c]pyridazin-8-yl]-3-[1-[[3-[2-[2-carboxyethyl(methyl)amino]ethoxy]-5,7-dimethyl-1-adamantyl]methyl]-5-methyl-pyrazol-4-yl]pyridine-2-carboxylic acid]
7 | 16.3 | 13.4 | 14.8 | Cc1c(Nc2nc3ccccc3s2)nnc2c1CCCN2c1ccc(-c2cnn(CC34CC5(C)CC(C)(C3)CC(OCCNCCC(=O)O)(C5)C4)c2C)c(C(=O)O)n1 [P71, 6-[3-(1,3-benzothiazol-2-ylamino)-4-methyl-6,7-dihydro-5H-pyrido[2,3-c]pyridazin-8-yl]-3-[1-[[3-[2-(2-carboxyethylamino)ethoxy]-5,7-dimethyl-1-adamantyl]methyl]-5-methyl-pyrazol-4-yl]pyridine-2-carboxylic acid]
